The source of these data is patent publication US20230162361A1, “ASSESSMENT OF SKIN TOXICITY IN AN IN VITRO TISSUE SAMPLES USING DEEP LEARNING” (Genentech, Inc., priority 2020, published 2023).

Like-named read-outs stand apart in the source and are kept apart here.

Data set [1] concerns reconstructed human epidermis (RHE) samples. Briefly: 3D in vitro reconstructed human epidermis (RHE) model, viable epidermal thickness measured with the machine-learning model after 4-day treatment. From the text: A decrease in epidermal thickness of the skin may be a toxicity indication for skin toxicities as well as for cutaneous disease. For example, one can calculate a percentage by dividing the epidermal thickness of the skin after the treatment by a drug compound by the epidermal thickness before the treatment. If the percentage is smaller than 10%, it may indicate very severe toxicity; if the percentage is between 10% and 50%, it may indicate severe toxicity; if the percentage is between 50% and […], it may indicate mild toxicity; and if the percentage is larger than 90%, it may indicate rare or no toxicity. There are few preclinical methods for evaluating in vivo skin toxicity prior to clinical trial. The last two decades have seen the advent of in vitro human skin models, which have a proven record of accurately predicting clinical skin toxicity. FIG. 3A illustrates an example reconstructed human epidermis (RHE) model 300. These reconstituted human epidermal (RHE) models 300 may be metabolically and mitotically active 3D models of the normal human epidermis derived from cultured human epidermal keratinocytes. The RHE models 300 may have in vivo-like morphology and growth characteristics. […] The RHE models 300 may have keratinocytes only but no dermis, vasculature or immune/inflammatory cells.
FIG. 5A illustrates an example annotation of an RHE sample 310 with tissue sections. […] After the epidermal area is identified, the thickness of the viable epidermal area may be computed, e.g., based on distance transformation. In particular embodiments, the median thickness value may be used to represent the thickness of the viable epidermal area for each tissue section and the average thickness of the two tissue sections of a RHE sample 310 may be used to represent a single RHE sample 310. FIG. 5B illustrates an example extraction of thickness of a tissue sample. […] The digital pathology image processing system 110 may then quantify, based on the centerline, a thickness value for each of the plurality of locations. […] This way, the thickness of each tissue sample (e.g., RHE sample 310) may be normalized. FIG. 5C illustrates an example normalization of the tissue thickness. […] The left subfigure of FIG. 5C may show the originally measured thickness whereas the right subfigure of FIG. 5C may show the normalized thickness. Although this disclosure describes calculating normalized thickness in a particular manner, this disclosure contemplates calculating normalized thickness in any suitable manner. As an example and not by way of limitation, the digital pathology image processing system may determine a plurality of stepwise thickness measurements along an axis determined based on the epidermal layer, calculate a length and area of the epidermal layer with the thickness being derived from them, and then calculate the normalized thickness accordingly.
The embodiments disclosed herein further conduct a retrospective study based on RHE samples 310 from five studies that evaluated the skin toxicity of various compounds. The 3D in vitro human skin model was used for all studies. A total of 31 compounds with known or suspected clinical skin toxicity were evaluated for skin toxicity, some of which were evaluated in more than one study. Upon receipt of the RHE samples 310, each tissue culture insert was transferred to a well of 6-well plate containing 1 mL/well of pre-warmed maintenance media and kept dry on top to maintain an air-liquid interface. The RHE samples 310 were equilibrated at 37° C., 5% CO2 overnight, and fed with fresh media the next day. One day later, the RHE samples 310 were subjected to 4-day daily basolateral treatment with test articles at various concentrations, or vehicle control DMSO at 0.5%.

The conditions of data set [2]: cited from earlier work.
For a further data set, the system named is skin. As to conditions: cited from earlier work; for Skin tox.: clinical skin toxicity (rash, pruritus, acne, dermatitis, alopecia, dry skin) in labels or publications; for clinical toxicity: clinical skin toxicity.
Setting [3] is: clinical exposure, maximal free concentrations measured in plasma.
[4] abbreviates: marked *: plasma protein binding unavailable, total concentration used.
[5] abbreviates: mean, normalized to control, test concentration 2 uM.
Where [6] appears, read: mean, normalized to control, test concentration 10 uM.

In the case of `CS(=O)(=O)CCNCc1ccc(-c2ccc3ncnc(Nc4ccc(OCc5cccc(F)c5)c(Cl)c4)c3c2)o1` [Lapatinib], the “change in epidermal thickness versus control (FIG. 11A)” value (shortened to “change”) in data set [1] was “significant decrease in epidermal thickness”. Moreover, the Normalized thickness in data set [1] (human, 4 days, 1 uM) came to 0.66. Besides, the Normalized thickness in data set [1] (human, 4 days, 10 uM) amounted to 0.47. Also, the Cmax_free in data set [2] (setting [3]) was 0.000039 µM. For the same compound, in the data set on skin, the Skin tox. result is “Yes” and the clinical toxicity result was “demonstrated clinical toxicity”.
Regarding `CN(C)C/C=C/C(=O)Nc1cc2c(Nc3ccc(F)c(Cl)c3)ncnc2cc1O[C@H]1CCOC1` [Afatinib], the “change” value in data set [1] is listed as “significant decrease in epidermal thickness”. Moreover, the Normalized thickness in data set [1] (human, 4 days, 1 uM) worked out at 0.70. In data set [1] (human, 4 days, 10 uM), this compound returned a Normalized thickness of 0.77. In addition, in data set [2] (setting [3]), the Cmax_free is 0.0042 µM. In the data set with skin, the Skin tox. entry was “Yes” and the clinical toxicity result is “demonstrated clinical toxicity”.
As for `CNC(=O)c1cc(Oc2ccc(NC(=O)Nc3ccc(Cl)c(C(F)(F)F)c3)cc2)ccn1` [Sorafenib], the “change” value in data set [1] is listed as “failed to cause any meaningful change in epidermal thickness”. Besides, the Normalized thickness stood at 0.87 in data set [1] (human, 4 days, 0.5 uM) and 0.85 in data set [1] (human, 4 days, 5 uM). Also, the Cmax_free in data set [2] (setting [3]) is 0.07 µM. Further, in the data set on skin, the Skin tox. entry was “Yes”.
With `C#Cc1cccc(Nc2ncnc3cc(OCCOC)c(OCCOC)cc23)c1` [Erlotinib], the “change” value in data set [1] is reported as “significant decrease in epidermal thickness”. Further, the Normalized thickness is 0.53 in data set [1] (human, 4 days, 1 uM); 0.75 in data set [1] (human, 4 days, 2 uM); 0.41 in data set [1] (human, 4 days, 10 uM). In addition, the Cmax_free in data set [2] (setting [3]) was 0.38 µM. Besides, the Skin tox. entry in the data set on skin is listed as “Yes”. Moreover, the clinical toxicity result in the data set on skin was “demonstrated clinical toxicity”.
With `COC(=O)Nc1nc2cc(C3(O)c4ccccc4C(=O)N3c3cc(Cl)ccc3C)ccc2[nH]1` (centres unmarked) [XL281], the “change” value in data set [1] was “increase in epidermal thickness”. Besides, the Normalized thickness is on record as 1.14 in data set [1] (human, 4 days, 0.5 uM) and 0.89 in data set [1] (human, 4 days, 5 uM). The Cmax_free in data set [2] (setting [4]) is recorded as 4.5* uM. The Skin tox. entry with skin was “No”.
Turning to `N#CC[C@H](C1CCCC1)n1cc(-c2ncnc3[nH]ccc23)cn1` [Ruxolitinib], the “change” value in data set [1] is listed as “significant decrease in epidermal thickness”. Moreover, the Normalized thickness in data set [1] (human, 4 days, 2 uM) was determined as 0.85; in data set [1] (human, 4 days, 10 uM), 0.81. Besides, in data set [2] (setting [3]), the Cmax_free is 0.033 µM. Besides, the Skin tox. result with skin is “No”. Besides, the clinical toxicity entry in the data set on skin is “did not exhibit clinical toxicity”.
`CS(=O)(=O)N1CCN(Cc2cc3nc(-c4cccc5[nH]ncc45)nc(N4CCOCC4)c3s2)CC1` [Pictilisib]: the “change” value in data set [1] is recorded as “significant decrease in epidermal thickness”. The Normalized thickness in data set [1] (human, 4 days, 0.02 uM) amounted to 0.94; in data set [1] (human, 4 days, 1 uM) it was 0.46.
In the case of `C=CC(=O)Nc1cc(Nc2nccc(-c3cn(C)c4ccccc34)n2)c(OC)cc1N(C)CCN(C)C` [Osimertinib], in data set [1], the “change” value is “significant decrease in epidermal thickness”. Besides, the Normalized thickness in data set [1] (human, 4 days, 0.3 uM) was found to be 0.85; in data set [1] (human, 4 days, 1 uM), 0.61; in data set [1] (human, 4 days, 3 uM), 0.45; in data set [1] (human, 4 days, 10 uM), 0.76. For the same compound, the median normalized thickness in data set [1] (human, 4 days, 300 nM) is on record as 0.80. Moreover, the Cmax_free in data set [2] (setting [3]) is 0.025 µM. Besides, in the data set with skin, the Skin tox. result is recorded as “Yes”. In addition, in the data set with skin, the clinical toxicity entry is reported as “demonstrated clinical toxicity”.
For the compound `Cc1nc(NC(=O)N2CCC[C@H]2C(N)=O)sc1-c1ccnc(C(C)(C)C(F)(F)F)c1` [Alpelisib], in data set [1], the “change” value is given as “significant decrease in epidermal thickness”. Besides, the Normalized thickness in data set [1] (human, 4 days, 0.32 uM) is given as 0.75; in data set [1] (human, 4 days, 3.2 uM), 0.45. Moreover, the Cmax_free in data set [2] (setting [3]) is 0.61 µM. In addition, the Skin tox. entry in the data set on skin is reported as “Yes”. Moreover, the clinical toxicity result with skin is listed as “demonstrated clinical toxicity”.
Regarding `OCCn1cc(-c2cnc3nnn(Cc4ccc5ncccc5c4)c3n2)cn1` [Pf-04217903], the “normalized epidermal thickness decrease” value in data set [1] (10 µM) is reported as “greater than 20%”. In data set [1] (setting [5]), this compound gave a Normalized thickness of 0.91. For the same compound, in data set [1] (setting [6]), the Normalized thickness was 0.72. Besides, the “change” value in data set [1] (normalized viable epidermal thickness, multiple comparison, result in words) was “significant decrease in epidermal thickness”. In data set [2] (setting [3]), the Cmax_free is 0.015 µM. In addition, in the data set on skin, the Skin tox. result is “No” and the clinical toxicity entry is listed as “did not exhibit clinical toxicity”.
In the case of `O=C(c1ccc(F)c(F)c1Nc1ccc(I)cc1F)N1CC(O)([C@@H]2CCCCN2)C1` [Cobimetinib], the “change” value in data set [1] is “significant decrease in epidermal thickness”. Further, the Normalized thickness in data set [1] (human, 4 days, 0.02 uM) is given as 0.91. Also, the Normalized thickness in data set [1] (human, 4 days, 1 uM) was found to be 0.71. In data set [2] (setting [3]), the Cmax_free is 0.03 µM. For the same compound, in the data set with skin, the Skin tox. entry is “Yes” and the clinical toxicity result is recorded as “demonstrated clinical toxicity”.
For `CC[C@H](Nc1ncnc2[nH]cnc12)c1nc2cccc(F)c2c(=O)n1-c1ccccc1` [Idelalisib], the Normalized thickness was determined as 0.95 in data set [1] (human, 4 days, 0.08 uM) and 1.00 in data set [1] (human, 4 days, 0.8 uM). The Cmax_free in data set [2] (setting [3]) is 0.84 µM. In addition, the Skin tox. result with skin is recorded as “Yes”.
Regarding `C=CC(=O)N1CCC(Oc2cc3c(Nc4ccc(Cl)c(Cl)c4F)ncnc3cc2OC)CC1` [Poziotinib], in data set [1], the “change” value is given as “significant decrease in epidermal thickness”. In addition, the Normalized thickness in data set [1] (human, 4 days, 0.3 uM) is recorded as 0.72; in data set [1] (human, 4 days, 1 uM), 0.65; in data set [1] (human, 4 days, 10 uM) it was 0.73. The Cmax_free in data set [2] (setting [3]) was 0.0021 µM. Also, the Skin tox. entry with skin is “Yes”. The clinical toxicity result in the data set on skin is recorded as “demonstrated clinical toxicity”.
Take `CC(=O)c1c(C)c2cnc(Nc3ccc(N4CCNCC4)cn3)nc2n(C2CCCC2)c1=O` [Palbociclib]: the Normalized thickness in data set [1] (human, 4 days, 0.023 uM) came out at 1.02; in data set [1] (human, 4 days, 0.23 uM), 0.99. Further, the Skin tox. entry in the data set on skin is “Yes”.
For `Cn1cc(-c2ccc3nnc(C(F)(F)c4ccc5ncccc5c4)n3n2)cn1` [Jnj-38877605], the values for the Normalized thickness in data set [1] (setting [5]) and in data set [1] (setting [6]) were 0.82 and 0.91, respectively. For the same compound, the Cmax_free in data set [2] (setting [4]) is 0.13* uM. The Skin tox. result in the data set with skin is recorded as “No”.
Turning to `C[C@@H]1CCN(C(=O)CC#N)C[C@@H]1N(C)c1ncnc2[nH]ccc12` [Tofacitinib], the “change” value in data set [1] is recorded as “significant decrease in epidermal thickness”. The Normalized thickness in data set [1] (human, 4 days, 2 uM) is 0.84; in data set [1] (human, 4 days, 10 uM) it was 0.82. In the data set on skin, the Skin tox. result is reported as “No”. For the same compound, the clinical toxicity result in the data set with skin is recorded as “did not exhibit clinical toxicity”.
